Test results from publication PMC10184128 (Journal of Medicinal Chemistry, 2023).

Key:
NOR1 (NR4A3) = molecular target: T1, NOR1 (NR4A3) (Homo sapiens, UniProt Q92570); test: cell-based
T1 sequence (Q92570 394-623 limits assumed): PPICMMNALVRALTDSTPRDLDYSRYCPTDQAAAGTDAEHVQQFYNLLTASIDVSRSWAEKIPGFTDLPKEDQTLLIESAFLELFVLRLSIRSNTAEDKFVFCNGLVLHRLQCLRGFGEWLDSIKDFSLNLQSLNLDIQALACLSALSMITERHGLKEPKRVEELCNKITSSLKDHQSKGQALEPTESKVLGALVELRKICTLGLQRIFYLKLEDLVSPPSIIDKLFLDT

human Nurr1 = human Nurr1 (Homo sapiens, UniProt P43354); conditions: for EC50(Nurr1): Gal4 hybrid reporter gene assay, mean ± S.E.M., n ≥ 3, inactive = at 10 μM; for activation of Gal4-Nurr1 (hybrid assay): all compounds tested at 10 μM, n = 3
human Nurr1, sequence (P43354 360-595 limits assumed): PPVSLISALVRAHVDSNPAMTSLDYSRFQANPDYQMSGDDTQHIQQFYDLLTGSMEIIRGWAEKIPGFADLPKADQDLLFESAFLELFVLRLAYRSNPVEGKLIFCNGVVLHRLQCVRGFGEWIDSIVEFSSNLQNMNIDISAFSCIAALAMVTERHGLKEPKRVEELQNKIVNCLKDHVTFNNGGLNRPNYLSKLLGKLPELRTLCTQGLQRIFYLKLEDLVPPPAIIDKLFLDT

[1] = molecular target: full-length human Nurr1 (NBRE) (Homo sapiens, UniProt P43354); conditions: all compounds tested at 10 μM, n = 3
full-length human Nurr1 (NBRE), sequence (P43354 whole entry): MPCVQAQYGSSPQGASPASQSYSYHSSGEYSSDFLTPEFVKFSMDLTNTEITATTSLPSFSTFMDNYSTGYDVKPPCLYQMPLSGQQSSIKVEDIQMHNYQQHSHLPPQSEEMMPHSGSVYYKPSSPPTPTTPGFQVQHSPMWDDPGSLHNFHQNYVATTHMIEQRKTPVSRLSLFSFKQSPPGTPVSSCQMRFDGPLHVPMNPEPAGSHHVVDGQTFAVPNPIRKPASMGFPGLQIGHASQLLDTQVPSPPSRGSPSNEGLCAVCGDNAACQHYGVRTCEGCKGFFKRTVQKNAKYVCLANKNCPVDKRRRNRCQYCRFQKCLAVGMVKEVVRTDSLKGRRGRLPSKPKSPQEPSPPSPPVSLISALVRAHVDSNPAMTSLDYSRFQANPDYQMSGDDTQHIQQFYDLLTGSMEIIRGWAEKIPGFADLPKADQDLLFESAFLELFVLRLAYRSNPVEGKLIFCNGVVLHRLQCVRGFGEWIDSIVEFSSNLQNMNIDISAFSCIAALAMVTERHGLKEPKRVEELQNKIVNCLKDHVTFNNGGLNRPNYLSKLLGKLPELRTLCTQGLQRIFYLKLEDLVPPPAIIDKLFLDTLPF

EC50 (NOR1 (NR4A3)) [µM] | EC50(Nurr1) (human Nurr1) | SMILES | activation of Gal4-Nurr1 (hybrid assay) (human Nurr1) | activation of full-length Nurr1 (NBRE) [1]
1.3 ± 0.3 | – | C#CCOc1cccc(-c2ccc(NC(=O)C3=C(C(=O)O)CCC3)c(F)c2)c1 [compound 29, 2-[(3-Fluoro-3′-prop-2-yn-1-yloxy[1,1′-biphenyl]-4-yl)carbamoyl]cyclopent-1-ene-1-carboxylic acid] | – | –
– | inactive (10 μM) | [2H]C([2H])([2H])Oc1cccc(C23CCC(NC(=O)C4=C(C(=O)O)CCC4)(CC2)CC3)c1 [compound 8] | – | –
– | inactive (10 μM) | [2H]C([2H])([2H])Oc1cccc(-c2ccc(N(C)C(=O)C3=C(C(=O)O)CCC3)c(F)c2)c1 [compound 9] | – | –
– | – | O=C(Nc1c(F)c(F)c(-c2ccccc2)c(F)c1F)c1c(=O)[nH]n2ccccc12 [MEDS433] | No other tested DHODH inhibitor caused activation | No other tested DHODH inhibitor caused activation
– | – | Cc1ccccc1-c1ccc(-c2cc(C(=O)O)c3c(c2)nnn3C)cc1 [AG-636] | No other tested DHODH inhibitor caused activation | No other tested DHODH inhibitor caused activation
– | – | COc1cccc(-c2cc(F)c(Nc3ncccc3C(=O)O)c(F)c2)c1 [farudodstat] | No other tested DHODH inhibitor caused activation | No other tested DHODH inhibitor caused activation
